# Data from US20080248487A1, “MODULATION OF PROTEIN FUNCTIONALITIES” (priority 2007, published 2008).
# Target: T1, p38 MAP kinase (Homo sapiens, UniProt Q16539)
# T1 construct: made in house; host or cells: E. coli
# Assay: P38 MAP kinase binding assay (competition with fluorescent probe SKF 86002)
# Settings: time-dependent if the IC50 values decrease with the reaction time (more than two-fold in four hours)
# Method: Thus, the ability of a small molecule to block fluoroprobe binding provides an experimental readout of binding to the switch control pocket. […] The reaction was initiated by addition of the enzyme. […] By comparison of rfu (relative fluorescence unit) values with that of a control (in the absence of small molecule modulators), the percentage of inhibition at each concentration of the small molecules were calculated. IC50 values for the small molecule modulators were calculated from the % inhibition values obtained at a range of concentrations of the small molecule modulators using Prism. When time-dependent inhibition was assessed, the plate was read at multiple reaction times such as 0.5, 1, 2, 3, 4 and 6 hours. The IC50 values were calculated at each time point. An inhibition was assigned as time-dependent if the IC50 values decrease with the reaction time (more than two-fold in four hours).
# T1 sequence (Q16539 whole entry): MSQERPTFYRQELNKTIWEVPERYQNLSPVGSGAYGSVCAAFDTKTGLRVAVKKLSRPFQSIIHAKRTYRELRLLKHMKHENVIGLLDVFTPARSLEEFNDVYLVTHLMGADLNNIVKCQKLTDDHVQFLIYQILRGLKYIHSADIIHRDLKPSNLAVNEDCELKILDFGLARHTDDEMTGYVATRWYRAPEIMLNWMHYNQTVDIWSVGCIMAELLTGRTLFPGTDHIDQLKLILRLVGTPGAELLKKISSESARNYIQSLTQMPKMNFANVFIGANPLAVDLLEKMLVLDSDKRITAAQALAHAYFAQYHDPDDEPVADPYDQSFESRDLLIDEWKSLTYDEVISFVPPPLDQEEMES
row,Time-dependent,Structure (SMILES)
1,No,CC1(C(=O)O)CC2(C)CC(C)(C1)C(=O)N(Cc1cccc(-n3nc(C(C)(C)C)cc3NC(=O)Nc3cccc4ccccc34)c1)C2=O (stereo not shown) [Example 11]
2,No,"CC(C)(C)c1cc(NC(=O)Nc2cccc3ccccc23)n(-c2ccc(CN)cc2)n1 [Example 45, 1-{3-tert-butyl-1-[4-(aminomethyl)phenyl]-1H-pyrazol-5-yl}-3-(naphthalen-1-yl)urea]"
3,No,CC1(C(=O)O)CC2(C)CC(C)(C1)C(=O)N(Cc1cccc(-n3nc(C(C)(C)C)cc3NC(=O)Nc3ccc(Cl)cc3)c1)C2=O (stereo not shown) [Example 12]
4,Yes,"CC(C)(C)c1cc(NC(=O)Nc2cccc3ccccc23)n(-c2cccc(CC(=O)N3CCOCC3)c2)n1 [Example 21, 1-{3-tert-butyl-1-[3-(2-morpholino-2-oxoethyl)phenyl]-1H-pyrazol-5-yl}-3-(naphthalene-1-yl)urea]"
